The values that follow come from patent US20070178045A1, “Cyclopeptide derivatives with anti-integrin activity” (priority 2004, published 2007).

Where “and” joins values, the source holds several entries; their conditions need not be identical. Equal values may be shown once.

Test [1] concerns the target T1, purified αvβ5 receptor (Homo sapiens, UniProt P06756+P18084).
T1 construct: purchased Chemicon CC1020
Kind of test: Binding to integrin αvβ5 receptors ([125I]echistatin competition). Conditions: inhibition of [125I]echistatin 0.15 nM binding to purified αvβ5 receptor; read-out: αvβ5 IC50 ± SD. As to the method:
Binding to Integrin αvβ5 Receptors
(§1) An aliquot of 100 μl was added to 96-well plates and incubated overnight at +4° C. Plates were washed once with buffer (50 mM Tris, pH 7.4, 100 mM NaCl, 2 mM CaCl2, 1 mM MgCl2, 1 mM MnCl2, 1% bovine serum albumin) and then incubated for another 2 hours at room temperature. Plates were washed twice with the same buffer and incubated for 3 hours at room temperature with the radioactive ligand [^125I]echistatin (Amersham Pharmacia Biotech) 0.15 nM in the presence of competition ligands. At the end of incubation, the wells were washed and the radioactivity determined using a gamma counter (Packard). Non-specific ligand binding was determined in the presence of excess cold echistatin (1 μM).
(§2) Evaluation of IC50 Parameters
(§3) The IC50 parameter was elaborated using “ALLFIT” software.

In test [2] the target is T2, purified αvβ3 receptor (Homo sapiens, UniProt P05106+P06756).
T2 construct: purchased Chemicon CC1020
Kind of test: Binding to integrin αvβ3 receptors ([125I]echistatin competition). The following applies: inhibition of [125I]echistatin 0.05 nM binding to purified αvβ3 receptor; read-out: αvβ3 IC50 ± SD. Here is the method: Binding to Integrin αvβ3 Receptors
as §1, with “0.05” for “0.15”, “Non-specific binding of the” for “Non-specific”, “ligand” for “ligand binding”
as §2, §3

Test [3] relates to A2780 human ovarian carcinoma. The test is classed as cell-based. Conditions: read-out: A2780 IC50, μM 3 h of treatm., cell adhesion to vitronectin, A2780 high levels of αvβ5 integrins. As to the method: (§4) Adhesion Assay of Tumor Cells on Vitronectin
(§5) A2780 human ovarian carcinoma and PC3 prostate carcinoma cells were grown in RPMI 1640 containing 10% fetal bovine serum and 50 μg/ml gentamycin sulfate. A498 human renal carcinoma were grown in EMEM containing 10% fetal bovine serum and 50 μg/ml gentamycin sulfate. All the cells were maintained in a 37° C. incubator with saturated humidity and an atmosphere of 95% air and 5% CO2.
(§6) A2780 cell line expresses high levels of αvβ5 integrins, A498 high levels of αvβ3 integrins, and PC3 low levels of both integrins.
(§7) To test the effect of the drugs on cell adhesion, the appropriate cellular density (40000-50000 cells/well) for each tumor cell line was incubated with different concentrations of the compounds in 96-well tissue culture plates coated with vitronectin (5 μg/ml) and was allowed to attach for 3 hours. After this time the cells were washed once with PBS containing Ca^2+ e Mg^2+. Tumor cells were fixed with 4% paraformaldehyde for 10 min at room temperature and stained with 1% toluidine blue for 10 min at room temperature. Tumor cells were washed with bi-distilled water, dried and solubilized with 1% SDS. The number of adherent cells was determined in a microplate reader (Victor2, EG&G Wallac) at 600 nm.
(§8) An IC50 value as parameter to measure the inhibiting effect of the molecules on tumor cell adhesion to vitronectin was evaluated using “ALLFIT” computer program.

Test [4] concerns A498 human renal carcinoma. The class given is cell-based. Conditions: read-out: A498 IC50, μM 3 h of treatm., cell adhesion to vitronectin, A498 high levels of αvβ3 integrins. As to the method: as §4, §5, §6, §7, §8
For test [5], the system named is PC3 prostate carcinoma cells. The class given is cell-based, human. Conditions: read-out: PC3 IC50, μM 3 h of treatm., cell adhesion to vitronectin, PC3 low levels of both integrins. As to the method: as §4, §5, §6
as §7, with “Tumor cells were washed with bi-distilled water, dried and solubilized with 1% SDS.” left out
as §8

`N=C(N)NCCC[C@@H]1NC(=O)[C@H](Cc2ccc(CN)cc2)NC(=O)[C@@H](Cc2ccccc2)NC(=O)[C@H](CC(=O)O)NC(=O)CNC1=O` [ST2581, c(Arg-Gly-Asp-D-Phe-Amp)]: the values for the half-maximal inhibitory concentration (IC50) in test [1] and in test [2] were 0.0034 ± 0.0001 µM and 0.0017 µM, respectively.
In the case of `COCCOCCOCCOCC(=O)NCc1ccc(C[C@@H]2NC(=O)[C@@H](Cc3ccccc3)NC(=O)[C@H](CC(=O)O)NC(=O)CNC(=O)[C@H](CCCNC(=N)N)NC2=O)cc1` [ST2597, c[Arg-Gly-Asp-D-Phe-Amp(CO—CH2—(OCH2CH2)3—OCH3)]], the IC50 (as a rule, the concentration that inhibits the measured activity by half) in test [1] came to 0.0021 ± 7e-05 µM; in test [2] it was 0.0135 ± 0.0008 µM.
In the case of `N=C(N)NCCC[C@@H]1NC(=O)[C@H](Cc2ccc(CNC(=O)CCC(=O)O)cc2)NC(=O)[C@@H](Cc2ccccc2)NC(=O)[C@H](CC(=O)O)NC(=O)CNC1=O` [ST2649, c[Arg-Gly-Asp-D-Phe-Amp-(CH2)2COOH]], the IC50 in test [1] is 0.0051 ± 7e-05 µM; in test [3], 9.5 ± 1.9 µM; in test [4] it was 34 ± 2.2 µM; in test [5], 33.7 ± 7.8 µM; in test [2] it was 0.0376 ± 0.0009 µM.
With `N=C(N)NCCC[C@@H]1NC(=O)[C@H](Cc2ccc(CNC(=O)COCCOCCOCC(=O)O)cc2)NC(=O)[C@@H](Cc2ccccc2)NC(=O)[C@H](CC(=O)O)NC(=O)CNC1=O` [ST2661, c[Arg-Gly-Asp-D-Phe-Amp-(CO—CH2—(O—CH2—CH2)2—O—CH2—COOH]], the IC50 is 12.3 ± 0.9 µM in test [3], 10.7 ± 0.4 µM in test [4] and 18.8 ± 4.4 µM in test [5].
Consider `CN1C(=O)[C@@H](Cc2ccccc2)NC(=O)[C@H](CC(=O)O)NC(=O)CNC(=O)[C@H](CCCNC(=N)N)NC(=O)[C@@H]1Cc1ccc(CN)cc1` [ST2700, c(Arg-Gly-Asp-D-Phe-N-Me-Amp)], for which the IC50 was 0.00099 µM in test [1]; 0.007 µM and 0.0072 µM in test [2].
Consider `N=C(N)NCCC[C@@H]1NC(=O)CN(Cc2ccc(CN)cc2)C(=O)[C@@H](Cc2ccccc2)NC(=O)[C@H](CC(=O)O)NC(=O)CNC1=O` [ST2701, c(Arg-Gly-Asp-D-Phe-N-Amb-Gly)], for which the IC50 in test [1] is 0.0029 ± 0.0001 µM; in test [2] it was 0.0367 ± 0.0007 µM.
Consider `CC(C)[C@H]1C(=O)N[C@@H](CCCNC(=N)N)C(=O)NCC(=O)N[C@@H](CC(=O)O)C(=O)N[C@H](Cc2ccccc2)C(=O)N1CCCCCC(=O)O` [ST2956, c[Arg-Gly-Asp-D-Phe-N(carboxypentilene)-Val)]], for which the IC50 amounted to 0.034 ± 0.0014 µM in test [1] and 0.03 ± 0.0009 µM in test [2].
Turning to `C=CCOC(=O)CCCCCN1C(=O)[C@@H](Cc2ccccc2)NC(=O)[C@H](CC(=O)O)NC(=O)CNC(=O)[C@H](CCCNC(=N)N)NC(=O)[C@@H]1C(C)C` [ST2957, c[Arg-Gly-Asp-D-Phe-N(allyloxycarbonylpentilene)-Val]], the figures for the half-maximal inhibitory concentration (IC50) in test [1] and in test [2] were 0.0383 ± 0.0013 µM and 0.0422 ± 0.0007 µM, respectively.
